Experimental findings from US11896733B2, “Apparatuses, methods, and compositions for the treatment and prophylaxis of chronic wounds” (KCI Licensing, Inc., priority 2010, dated 2024) are described below.

Structures are written as SMILES.

The nature of data set [1]: Release of alpha-lipoic acid from the coating on foam pads. In kind it is physicochemical. To be noted: gelatin coating on foam pads (FIG. 9). The source says:
Polyurethane open-cell reticulated foam pads were selected as the scaffold 140 and were immersed in a solution containing 1.5 wt % of alpha-lipoic acid and 4.5 wt % 225-bloom beef gelatin (and, where applicable, 0.3% EDTA). Gelatin was used as a biocompatible binding agent with good oxygen barrier and sustained release properties for alpha-lipoic acid as well as for its ability to act as a sacrificial substrate for surrounding gelatinases. Alpha-lipoic acid was pre-dissolved in ethanol and then mixed into the final solution. The foam pads were immersed for a sufficient amount of time to coat the pathways formed within the open-cell reticulated foam as described above with respect to the scaffold 140. After immersion, the foam pads were withdrawn, compressed to remove excess solution, and dried to a constant weight. In some cases, sodium benzoate was added to the formulation as a preservative. Dried foams comprised, by weight, 2% alpha-lipoic acid, 6% gelatin and, where applicable, 0.4% EDTA.
A National Diagnostics Hydrogen Peroxide Assay Kit was used to evaluate the antioxidant properties of foam pads and the formulated coated foam pads containing alpha-lipoic acid. Foam pads coated only with gelatin were used as controls. FIG. 7 is a graph showing the percentage of hydrogen peroxide reduction due to reaction with alpha-lipoic acid. […]

The target in the next data set is T1, MMP-9 (Homo sapiens, UniProt P14780).
T1 construct: purchased Biomol
Nature of the data set: MMP-9 Colorimetric Drug Discovery Kit (Biomol): MMP-9 activity reduction by dressings. In kind it is biochemical. The following applies: compared to control samples with no MMP-9 inhibitor activity. The source says:
A National Diagnostics Hydrogen Peroxide Assay Kit was used to evaluate the antioxidant properties of foam pads and the formulated coated foam pads containing alpha-lipoic acid. Foam pads coated only with gelatin were used as controls. FIG. 7 is a graph showing the percentage of hydrogen peroxide reduction due to reaction with alpha-lipoic acid. An MMP-9 Colorimetric Drug Discovery Kit (Biomol) was used to evaluate the MMP inhibiting/inactivating ability of the formulated foam pads containing alpha-lipoic acid/gelatin (ALA) and gelatin alone (GF GEL). The controls were uncoated foam pads and known potent MMP inactivating drug, NNGH (C13H20N2O5S, available from Enzo® Life Sciences). […] FIG. 9 is a graph showing the release of alpha-lipoic acid from the coating on the foam pads. The coating delivers approximately 70% of the total alpha-lipoic acid within the first day, while the remaining alpha-lipoic acid is released during the next 2-3 days.
Coated polyurethane foam (GranuFoam®) scaffolds described above in Examples 1-2 were further assayed for their ability to reduce MMP activity as compared to non-coated collagen based scaffold such as the Biostep™ and Promogran™ products.

T1 sequence (P14780 107-444 limits assumed): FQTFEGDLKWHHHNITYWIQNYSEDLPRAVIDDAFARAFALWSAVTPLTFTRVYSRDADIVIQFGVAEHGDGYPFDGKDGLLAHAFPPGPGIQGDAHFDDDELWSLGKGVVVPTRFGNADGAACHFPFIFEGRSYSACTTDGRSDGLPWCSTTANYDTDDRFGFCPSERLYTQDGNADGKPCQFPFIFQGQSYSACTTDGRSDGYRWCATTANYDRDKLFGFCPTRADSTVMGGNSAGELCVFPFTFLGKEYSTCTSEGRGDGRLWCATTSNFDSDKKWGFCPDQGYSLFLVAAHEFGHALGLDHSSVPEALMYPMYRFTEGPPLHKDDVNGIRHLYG

As to `O=C(O)CCCCC1CCSS1` (stereo not drawn) [alpha-lipoic acid], the “time over which the remaining alpha-lipoic acid is released” value in data set [1] (after the first day) was in the range of 2 to 3 days. Further, the “fraction of the total alpha-lipoic acid delivered by the coating” value in data set [1] (within the first day) is on record as “approximately 70%”.

For `COc1ccc(S(=O)(=O)N(CC(=O)NO)CC(C)C)cc1` [NNGH], the “% MMP-9 activity reduction” value was determined as 90.2% at MMP-9 (Table 1 (first of two separate experiments)) and 103.8% on MMP-9 (Table 2 (second of two separate experiments)).
